Data from patent publication US20030236306A1, “Stabilized formulations of alpha adrenergic receptor antagonists and the uses thereof” (priority 2002, published 2003).
Where a name gives a salt, the structure may show the parent alone.

Experiment: Effect of additives on stability, pH 3.5, 60° C.
Type: physicochemical
Conditions: 10 mM Sodium Acetate
Experimental: The drug is monitored at a detection wavelength of 232 nm.
The pH value of the solutions was readjusted to pH 3.5, as required.
All samples were placed in 10 ml glass serum vials, stoppered with rubber closures with an inert coating (Daikyo Flurotec by WEST Pharmaceutical), and sealed with flip-top caps after sampling. Vials were placed at 60° C. after the weights were recorded.
Sampling occurred at the initial time point and on days 2, 7, and 14.
Vials were weighed, sampled, sealed, re-weighed, and replaced under the selected storage condition until testing at the subsequent time point.

- Phentolamine Concentration (EDTA, 0.7 mg/ml, Day 0): 106 µg/mL
- Phentolamine Concentration (EDTA, 0.7 mg/ml, Day 2): 103 µg/mL
Structure (SMILES): Cc1ccc(N(CC2=NCCN2)c2cccc(O)c2)cc1 [Phentolamine Mesylate, phentolamine mesylate]
- Rate Constant (zero-order) (EDTA, 0.7 mg/ml): 0.438 µg/mL/day
- Rate Constant (zero-order) (Glycerol, 25% w/v): 0.726 µg/mL/day
- Rate Constant (zero-order) (NaCl, 50 mg/ml): 1.663 µg/mL/day
- Rate Constant (zero-order) (Niacinamide, 50 mg/ml): -0.026 µg/mL/day
- Rate Constant (zero-order) (No additive): 1.027 µg/mL/day
- Rate Constant (zero-order) (Propylene glycol, 25% w/v): 1.019 µg/mL/day
- Rate Constant (zero-order) (Sodium metabisulfite, 0.5 mg/ml): 1.903 µg/mL/day
- Rate Constant (zero-order) (d-Mannitol, 40 mg/ml): 0.416 µg/mL/day
- Rate Constant (zero-order) (α-Cyclodextran, 50 mg/ml): 0.501 µg/mL/day
